Ki data for 18 compounds are collected here from patent US20120214847A1, “2-[1-PHENYL-5-HYDROXY-4a-SUBSTITUTED-HEXAHYDROCYCLOPENTA[F]INDAZOL-5-YL]ETHYL PHENYL DERIVATIVES AS GLUCOCORTICOID RECEPTOR LIGANDS” (Merck Sharp & Dohme Corp., priority 2009, published 2012).

Structures are written as SMILES.

The target in this assay is T1, glucocorticoid receptor (Homo sapiens, UniProt P04150).
T1 construct: endogenous in cells; host or cells: HeLa (ATCC) cell lysate supernatant
T1 sequence (P04150 1-777): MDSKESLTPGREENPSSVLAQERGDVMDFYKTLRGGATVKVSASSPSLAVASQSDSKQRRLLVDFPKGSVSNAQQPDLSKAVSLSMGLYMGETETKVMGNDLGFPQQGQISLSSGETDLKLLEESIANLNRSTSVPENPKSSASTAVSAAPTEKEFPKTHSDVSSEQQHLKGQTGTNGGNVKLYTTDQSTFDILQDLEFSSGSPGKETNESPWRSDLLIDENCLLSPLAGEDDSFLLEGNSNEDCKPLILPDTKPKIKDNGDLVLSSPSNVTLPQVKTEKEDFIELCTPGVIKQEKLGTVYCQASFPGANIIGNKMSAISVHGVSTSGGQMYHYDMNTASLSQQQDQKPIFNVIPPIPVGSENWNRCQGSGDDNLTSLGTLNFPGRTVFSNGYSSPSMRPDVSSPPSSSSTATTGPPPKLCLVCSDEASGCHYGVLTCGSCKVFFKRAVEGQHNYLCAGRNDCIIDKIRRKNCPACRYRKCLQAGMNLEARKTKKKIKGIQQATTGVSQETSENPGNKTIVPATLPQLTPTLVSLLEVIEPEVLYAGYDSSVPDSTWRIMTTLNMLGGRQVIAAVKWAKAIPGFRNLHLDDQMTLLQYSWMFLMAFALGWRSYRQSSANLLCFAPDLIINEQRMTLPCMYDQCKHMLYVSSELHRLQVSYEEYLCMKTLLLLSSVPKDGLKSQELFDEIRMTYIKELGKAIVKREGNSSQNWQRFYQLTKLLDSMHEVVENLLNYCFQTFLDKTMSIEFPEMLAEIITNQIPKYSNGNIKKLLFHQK
Description: Ligand binding assay (GRBind), 3H-dexamethasone displacement in HeLa cell lysate. The note with it: 3H-DEX tracer. On the procedure:
Binding Buffer: TEGM (10 mM Tris-HCl, 1 mM EDTA, 10% glycerol, 1 mM betamecaptoethanol, 10 mM Sodium Molybdate, pH 7.2)
50% HAP Slurry: Calbiochem Hydroxylapatite, Fast Flow, in 10 mM Tris, pH 8.0 and 1 mM EDTA.
Wash Buffer: 40 mM Tris, pH7.5, 100 mM KCl, 1 mM EDTA and 1 mM EGTA. 95% EtOH Dexmethasone-methyl-3H, (DEXA*); (Amersham cat#TRK645) Dexamethasone(DEX) (Sigma, cat#01756):
Hydroxylapatite Fast Flow; Calbiochem Cat#391947
25 Molybdate=Molybdic Acid (Sigma, M1651)
5 Cells (Hall R. E., et al., European Journal of Cancer, 30A: 484-490 (1994)) HeLa (ATCC) cultured in RPMI 1640 (Gibed 11835-055) containing 20 mM Hepes, 4 mM L-glu, 10 ug/ml of human insulin (Sigma, 1-0259), 10% FBS and 20 uglml of Gentamicin (Gibco#15710072) are rinsed twice in PBS. Phenol red-free Trypsin-EDTA is diluted in the same PBS 1:10. The cell layers are rinsed with IX Trypsin, extra Trypsin is poured out, and the cell layers are incubated at 37° C. for 2 min. The flask is tapped and checked for signs of cell detachment. Once the cells begin to slide off the flask, the complete media is added. The cells are counted at this point, then diluted to the appropriate concentration and split into flasks or dishes for further culturing (Usually 1:3 to 1:6 dilution).
Preparation of HeLa Cell Lysate
When the cells are 70 to 85% confluent, they are detached as described above, and collected by centrifuging at 1000 g for 10 min at 4° C. The cell pellet is washed twice with TEGM (10 mM Tris-HCl, 1 mM EDTA, 10% glycerol, 1 mM beta-mercaptoethanol, 10 mM Sodium Molybdate, pH 7.2). After the final wash, the cells are resuspended in TEGM at a concentration of 10^7 cells/mL. The cell suspension is snap frozen in liquid nitrogen or ethanol/dry ice bath and transferred to −80° C. freezer on dry ice. Before setting up the binding assay, the frozen samples are left on ice-water to just thaw. Then the samples are centrifuged at 12,500 g to 20,000 g for 30 min at 4° C. The supernatant is used to set-up assay right away. If using 50 μL of supernatant, the test compound can be prepared in 50 μL of the TEGM buffer.
Procedure for Multiple Compound Screening
1×TEGM buffer is prepared, and the isotope-containing assay mixture is prepared in the following order: EtOH (2% final concentration in reaction), 3H-DEX (Amersham Biosciences) and 1×TEGM. [e.g. For 100 samples, 200 JlL (100×2) of EtOH+4.25 JlL of 1:10 ^3H-Dex stock+2300 μL (100×23) 1×TEGM]. The compound is serially diluted, e.g., if starting final conc. is 1 μM, and the compound is in 25 μL of solution, for duplicate samples, 75 μL of 4×1 μM solution is made and 3 μL of 100). 1M is added to 72 μL of buffer, and 1:5 serial dilution.
25 μL of ^3H-DEX (6 nM) trace and 25 μL, compound solution are first mixed together, followed by addition of 50 μL receptor solution. The reaction is gently mixed, spun briefly at about 200 rpm and incubated at 4° C. overnight. 100 μL of 50% HAP slurry is prepared and added to the incubated reaction which is then vortexed and incubated on ice for 5 to 10 min. The reaction mixture is vortexed twice more to resuspend HAP while incubating reaction. The samples in 96-well format are then washed in wash buffer using the FilterMate™ Universal Harvester plate washer (Packard). The washing process transfers HAP pellet containing ligand-bound expressed receptor to Unifilter-96 GFIB filter plate (Packard). The HAP pellet on the filter plate is incubated with […] of MICROSCINT (Packard) scintillant for 30 min before being counted on the TopCount microscintillation counter (Packard). IC50s are calculated using DEX as a reference.
The term Ki denotes a dissociation constant, usually derived from enzyme kinetics or from competition with a known ligand. A low value points to tighter binding. Turning to `CC[C@]12Cc3cnn(-c4ccc(F)cc4)c3C=C1CC[C@@]2(O)CCc1nccc(OC)c1C(F)C(N)=O` (stereo partly drawn) [Example 65, 2-(2-{2-[(4aS,5R)-4a-Ethyl-1-(4-fluorophenyl)-5-hydroxy-1,4,4a,5,6,7-hexahydrocyclopenta[f]indazol-5-yl]ethyl}-4-methoxypyridin-3-yl)-2-fluoroacetamide], the affinity corresponds to a Ki of 9.2 nM.

`NC(=O)CNC(=O)c1cccnc1CC[C@]1(O)CCC2=Cc3c(cnn3-c3ccc(F)cc3)C[C@@]21C1CC1` [Example 43, N-(2-Amino-2-oxoethyl)-2-{2-[(4aR,5R)-4a-cyclopropyl-1-(4-fluorophenyl)-5-hydroxy-1,4,4a,5,6,7-hexahydrocyclopenta[f]indazol-5-yl]ethyl}pyridine-3-carboxamide] showed an inhibitory constant (Ki) of 5.47 nM.

In the case of `CC[C@]12Cc3cnn(-c4cccnc4)c3C=C1CC[C@@]2(O)CCc1ccccc1C#N` [Example 5, 2-{2-[(4aS,5R)-4a-Ethyl-5-hydroxy-1-(pyridin-3-yl)-1,4,4a,5,6,7-hexahydrocyclopenta[f]indazol-5-yl]ethyl}benzonitrile], the affinity corresponds to a Ki of 2.01 nM.

Turning to `CC[C@]12Cc3cnn(-c4ccc(F)cc4)c3C=C1CC[C@@]2(O)CCc1ccccc1S(C)(=O)=O` [Example 42, (4aS,5R)-4a-Ethyl-1-(4-fluorophenyl)-5-{2-[2-(methylsulfonyl)phenyl]ethyl}-1,4,4a,5,6,7-hexahydrocyclopenta[f]indazol-5-ol], the inhibition constant (Ki) came out at 1.97 nM.

Regarding `OC(C[C@]1(O)CCC2=Cc3c(cnn3-c3ccc(F)cc3)C[C@@]21C1CC1)c1ccc(F)cn1` (single isomer, unassigned) [Example 79a], the affinity corresponds to a Ki of 2.83 nM.

For `CC[C@]12Cc3cnn(-c4ccc(F)cc4)c3C=C1CC[C@@]2(O)CCc1ccccc1S(=O)(=O)CC` [Example 51, (4aS,5R)-4a-Ethyl-5-{2-[2-(ethylsulfonyl)phenyl]ethyl}-1-(4-fluorophenyl)-1,4,4a,5,6,7-hexahydrocyclopenta[f]indazol-5-ol], the affinity corresponds to a Ki of 2.45 nM.

Take `CC[C@]12Cc3cnn(-c4ccc(F)cc4)c3C=C1CC[C@@]2(O)CCc1ccc(F)cc1C(N)=O` [Example 8, 2-{2-[(4aS,5R)-4a-Ethyl-1-(4-fluorophenyl)-5-hydroxy-1,4,4a,5,6,7-hexahydrocyclopenta[f]indazol-5-yl]ethyl}-5-fluorobenzamide]: the Ki was 1.27 nM.

`NC(=O)c1ccccc1CC[C@]1(O)CCC2=Cc3c(cnn3-c3ccccc3)C[C@@]21C1CC1` [Example 29, 2-{2-[(4aR,5R)-4a-Cyclopropyl-5-hydroxy-1-phenyl-1,4,4a,5,6,7-hexahydrocyclopenta[f]indazol-5-yl]ethyl}benzamide] showed a Ki of 2.29 nM.

Consider `COc1ccnc(CC[C@]2(O)CCC3=Cc4c(cnn4-c4ccc(F)cc4)C[C@@]32C2CC2)c1C(F)C(N)=O` (stereo partly drawn) [Example 66, 2-(2-{2-[(4aR,5R)-4a-Cyclopropyl-1-(4-fluorophenyl)-5-hydroxy-1,4,4a,5,6,7-hexahydrocyclopenta[f]indazol-5-yl]ethyl}-4-methoxypyridin-3-yl)-2-fluoroacetamide], for which the Ki came to 1.82 nM.

`CC[C@]12Cc3cnn(-c4ccc(F)cc4)c3C=C1CC[C@@]2(O)CCc1cc(C(F)(F)F)ccn1` [Example 34, (4aS,5R)-4a-Ethyl-1-(4-fluorophenyl)-5-{2-[4-(trifluoromethyl)pyridin-2-yl]ethyl}-1,4,4a,5,6,7-hexahydrocyclopenta[f]indazol-5-ol] yielded an inhibition constant Ki of 2.23 nM.

`CC[C@]12Cc3cnn(-c4cccc(F)c4)c3C=C1CC[C@@]2(O)CCc1cccc(F)c1C(N)=O` [Example 12, 2-{2-[(4aS,5R)-4a-Ethyl-1-(3-fluorophenyl)-5-hydroxy-1,4,4a,5,6,7-hexahydrocyclopenta[f]indazol-5-yl]ethyl}-6-fluorobenzamide]: the Ki came out at 1.85 nM.

In turn, `CC[C@]12Cc3cnn(-c4ccc(F)cc4)c3C=C1CC[C@@]2(O)CCc1ccccc1CCC(N)=O` [Example 22, 3-(2-{2-[(4aS,5R)-4a-Ethyl-1-(4-fluorophenyl)-5-hydroxy-1,4,4a,5,6,7-hexahydrocyclopenta[f]indazol-5-yl]ethyl}phenyl)propanamide] came in with a Ki of 1.48 nM.

For `CC[C@]12Cc3cnn(-c4ccccc4)c3C=C1CC[C@@]2(O)CCc1ccccc1C(N)=O` [Example 20, 2-{2-[(4aS,5R)-4a-Ethyl-5-hydroxy-1-phenyl-1,4,4a,5,6,7-hexahydrocyclopenta[f]indazol-5-yl]ethyl}benzamide], affinity was put at a Ki of 2.49 nM.

Compound `N#Cc1ccnc(CC[C@]2(O)CCC3=Cc4c(cnn4-c4ccc(F)cc4)C[C@@]32C2CC2)c1` [Example 35, 2-{2-[(4aR,5R)-4a-Cyclopropyl-1-(4-fluorophenyl)-5-hydroxy-1,4,4a,5,6,7-hexahydrocyclopenta[f]indazol-5-yl]ethyl}pyridine-4-carbonitrile] displayed a Ki of 1.99 nM.

`COc1cccc(CC[C@]2(O)CCC3=Cc4c(cnn4-c4ccc(F)cc4)C[C@@]32C2CC2)c1C(N)=O` [Example 38, 2-{2-[(4aR,5R)-4a-Cyclopropyl-1-(4-fluorophenyl)-5-hydroxy-1,4,4a,5,6,7-hexahydrocyclopenta[f]indazol-5-yl]ethyl}-6-methoxybenzamide]: the inhibition constant (Ki) stood at 1.25 nM.

Take `CC[C@]12Cc3cnn(-c4cccnc4)c3C=C1CC[C@@]2(O)CCc1cccc(F)c1C#N` [Example 10, 2-{2-[(4aS,5R)-4a-Ethyl-5-hydroxy-1-(pyridin-3-yl)-1,4,4a,5,6,7-hexahydrocyclopenta[f]indazol-5-yl]ethyl}-6-fluorobenzonitrile]: the affinity corresponds to a Ki of 2.59 nM.

With `CC[C@]12Cc3cnn(-c4ccc(F)cc4)c3C=C1CC[C@@]2(O)CC(O)c1cc(C#N)ccn1` (stereo partly drawn) [Example 72, 2-{2-[(4aS,5R)-4a-Ethyl-1-(4-fluorophenyl)-5-hydroxy-1,4,4a,5,6,7-hexahydrocyclopenta[f]indazol-5-yl]-1-hydroxyethyl}pyridine-4-carbonitrile], the Ki was determined as 6.25 nM.

In turn, `CC[C@]12Cc3cnn(-c4ccc(F)cc4)c3C=C1CC[C@@]2(O)CC(O)c1ccccn1` (stereo partly drawn) [Example 68, (4aS,5R)-4a-Ethyl-1-(4-fluorophenyl)-5-[2-hydroxy-2-(pyridin-2-yl)ethyl]-1,4,4a,5,6,7-hexahydrocyclopenta[f]indazol-5-ol] displayed a Ki of 2.72 nM.
